How the values were obtained:
[1] = system: BRAFV600E-mutant lung cancer patient-derived xenografts (PDX); experiment: ERK inhibitor monotherapy of lung cancer PDX, tumor growth; type: in vivo, mice; conditions: SCH984 75 mpk; FIG. 1B
Text: These were established as described^38,39, in accordance with the Memorial Sloan Kettering Cancer Center Institutional Review Board. Informed consent was obtained in all cases. All animal studies were done in accordance with protocols approved by the MSKCC Animal Care and Use Committee. Melanoma models were generated previously40. Patient derived tissue (biopsy or surgical resection) or pleural fluid was used to establish the lung cancer models in Table I. For biopsy or resection specimens, the tumor sample was minced under aseptic conditions, vigorously washed in 1×PBS, passed through a 60-μm filter, centrifuged, and then re-suspended in 500 μL of Matrigel (BD Biosciences) at 4° C. For pleural effusions, the fluid was centrifuged in order to isolate the cellular fraction and washed several times in cold PBS. Cells were then injected subcutaneously in the flanks of NSG mice and monitored for tumor growth. […]
Nu/nu athymic or NSG mice were obtained from the Harlan Laboratories and maintained in compliance with IACUC guidelines. […] Doubling times were calculated by fitting tumor volumes into exponential growth curves and determining their rate constants in Prism. […] Statistically significant differences in rate constants were determined by using the extra-sum-of-squares F test (with p<0.05) embedded in Prism. […]

[2] = system: ERK; conditions: cited from earlier work

In the case of `CS[C@@]1(C(=O)Nc2ccc3[nH]nc(-c4ccc(OC(C)C)nc4)c3c2)CCN(CC(=O)N2CC=C(c3ccc(-c4ncn(C)n4)cc3)CC2)C1` [SCH984], the “PDX tested in which growth was inhibited” value [1] is given as 3/4, the duration of response [1] is given as “several weeks” and the “effect on ERK kinase activity and ERK phosphorylation by MEK” value ([2]; ATP-competitive inhibitor) is given as “inhibits the kinase activity of ERK and prevents its phosphorylation by MEK”. For the same molecule, the “preference for phosphorylation state of ERK” value [2] was “preferentially targets unphosphorylated ERK”.

Source: US11590133B2, “Methods and compositions for treatment of BRAF mutant cancers” (MEMORIAL SLOAN KETTERING CANCER CENTER, priority 2016, dated 2023)
